Laboratory results reported in PubChem BioAssay (NCI).
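Five concentrations, 48 hours, 96-well plates. TGI: concentration producing complete growth inhibition.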

Columns and labels:
Experiment in all cases: NCI-60 cell line screen, 48 h
EKVX NSCLC = system: EKVX NSCLC
HOP-62 NSCLC = system: HOP-62 NSCLC
HOP-92 NSCLC = system: HOP-92 NSCLC
KM12 colon = system: KM12 colon
NCI-H226 lung = system: NCI-H226 lung
NCI-H23 lung = system: NCI-H23 lung
NCI-H460 lung = system: NCI-H460 lung
OVCAR-3 ovarian = system: OVCAR-3 ovarian
OVCAR-8 ovarian = system: OVCAR-8 ovarian
PC-3 prostate = system: PC-3 prostate
SK-MEL-28 melanoma = system: SK-MEL-28 melanoma
SN12C renal = system: SN12C renal
SNB-75 CNS = system: SNB-75 CNS
SW-620 colon = system: SW-620 colon
U251 CNS = system: U251 CNS
UACC-257 melanoma = system: UACC-257 melanoma
UACC-62 melanoma = system: UACC-62 melanoma
UO-31 renal = system: UO-31 renal
HS 578T breast = system: HS 578T breast

SMILES | TGI (EKVX NSCLC) [µM] | TGI (HOP-62 NSCLC) [µM] | TGI (HOP-92 NSCLC) [µM] | TGI (KM12 colon) [µM] | TGI (NCI-H226 lung) [µM] | TGI (NCI-H23 lung) [µM] | TGI (NCI-H460 lung) [µM] | TGI (OVCAR-3 ovarian) [µM] | TGI (OVCAR-8 ovarian) [µM] | TGI (PC-3 prostate) [µM] | TGI (SK-MEL-28 melanoma) [µM] | TGI (SN12C renal) [µM] | TGI (SNB-75 CNS) [µM] | TGI (SW-620 colon) [µM] | TGI (U251 CNS) [µM] | TGI (UACC-257 melanoma) [µM] | TGI (UACC-62 melanoma) [µM] | TGI (UO-31 renal) [µM] | TGI (HS 578T breast) [µM]
O=C(O)c1nc2ccc(C(F)(F)F)cc2nc1NCc1ccc(F)cc1 | 68.3 | 46.1 | 45.3 | > 100 | > 100 | 79.8 | 63 | 33.2 | 55.7 | 82.6 | > 100 | 35.4 | 94.9 | > 100 | 56.9 | 76.2 | 35.1 | 7.39 | –
Cc1cc(C)c(C(=O)c2nnc3ccccc3c2N)c(C)c1 | – | 32.9 | 52.9 | 42 | 49.7 | > 100 | – | 36.6 | – | 56.9 | 56.7 | 38.5 | 86.3 | > 100 | > 100 | > 100 | 62.1 | – | 57.3
Oc1cc(O)cc(-c2nc3cc(F)ccc3s2)c1 | – | – | – | 52.1 | 64.2 | 94.5 | 54 | 63.6 | 64.8 | 83.6 | 77 | 76.4 | – | > 100 | 60.5 | 45.6 | 40.7 | 76.6 | –
COC(=O)[C@H](Cc1c[nH]c2ccccc12)NC(=O)c1ccc(CNC(=O)/C(C)=C/c2ccccc2)cc1 | > 100 | > 100 | 34.3 | > 100 | > 100 | > 100 | > 100 | > 100 | > 100 | > 100 | 36.7 | > 100 | 32.2 | > 100 | > 100 | 33.5 | 41.7 | > 100 | –
O=c1cc(CO)oc(C(O)c2ccccc2)c1O (stereo not drawn) | – | > 100 | > 100 | > 100 | > 100 | > 100 | > 100 | > 100 | > 100 | > 100 | > 100 | > 100 | > 100 | > 100 | > 100 | > 100 | > 100 | > 100 | > 100
N#CC1=C(Nc2ccccc2)SC=C(c2ccccc2)NC1=NCc1ccccc1 | – | > 100 | – | > 100 | – | > 100 | – | > 100 | > 100 | > 100 | > 100 | > 100 | – | > 100 | > 100 | – | > 100 | > 100 | –
Cc1cc(C2CC(O)C(CO)O2)c(F)cc1F (stereo not drawn) | > 100 | > 100 | > 100 | > 100 | > 100 | > 100 | > 100 | > 100 | > 100 | > 100 | > 100 | > 100 | > 100 | > 100 | > 100 | > 100 | > 100 | > 100 | –
